# Earlier results in patent publication US6462233B1, “Process for the preparation of sorbic acid” (Daicel Chemical Industries, Ltd., priority 1998, dated 2002).
# Conditions: hot water around 100° C.
compound,measurement,value
C/C=C/C=C/C(=O)O [sorbic acid],solubility of sorbic acid,at most 3%
